In EP0233461B2, “4,5,6-Substituted-2-pyrimidinamines” (AMERICAN CYANAMID COMPANY, priority 1986, dated 1987):
Structures can show the parent of a compound that is named as a salt.

What follows are compounds tested on human basophils (assay: Inhibition of histamine release from immunologically stimulated human basophils). Settings: Homo sapiens, concentration causing 50% inhibition of histamine release, by linear regression; active if IC50 ≦ 48 µM; read-out: IC50.
Assay type: cell-based
Method: The blood is allowed to sediment at room temperature in two 50 ml polycarbonate centrifuge tubes until a sharp interface develops between the red cells and plasma (60-90 minutes). The plasma (top) layer from each tube is withdrawn by pipet and transferred to respective 50 ml polycarbonate tubes. The plasma is centrifuged for 8 minutes at 110X G at 4°C. The supernatant is carefully poured off as completely as possible and the cell button is resuspended in 2-3 ml of Tris-A buffer using a siliconized Pasteur pipet. The resuspension is accomplished by drawing the liquid gently in an out of the pipet, with the tip below the liquid until an even suspension of cells is obtained. Sufficient Tris-A buffer is then added to bring the volume in the tube to about 45 ml and the tube is centrifuged at 110X G for 8 minutes at 4°C. The supernatant is poured off and the cell button is resuspended and centrifuged as described above. The supernatant is poured off and the cell button is suspended in 2-3 ml of Tris-ACM buffer to make the final volume sufficient to allow addition to the reaction tubes. Reaction tubes containing anti-IgE or antigens, either alone or with test compound in a total volume of 0.2 ml are prepared and placed in a 37°C bath. The cells are warmed to 37°C and frequently swirled to ensure an even suspension, while 1.0 ml aliquots are added to each reaction tube. The tubes are then incubated for 60 minutes at 37°C, vortexing the tubes gently every 15 minutes to keep the cells evenly suspended. When the reaction is complete, the tubes are centrifuged at 4°C for 10 minutes at 1500 rpm to sediment the cells. […] Blanks and totals are included in each test. The blanks have cells and all reagents except antigen or anti-IgE. The totals contain 0.24 ml of 8% perchloric acid, one ml of cells and 0.2 ml of buffer. All samples are then centrifuged to remove the precipitate protein. […] The automated system consists of the following Technicon Autoanalyzer II components Sampler IV, Dual-Speed Proportioning Pump III, Fluoronephelometer with a narrow pass primary filter 7-60 and a secondary filter 3-74, Recorder, and Digital Printer. The manifold used is the one described by Siraganian vide supra, with the following modifications: the dialyzer is omitted; all pumping tubes pass through a single proportioning pump with large capacity and twice the volume of sample is taken for anaylsis. The automated chemistry consists of the following steps: Extraction from alkaline saline into butanol, back extraction into dilute hydrochloric acid by addition of heptane, reaction of histamine with o-phthaldialdehyde (OPT) at high pH and conversion of the OPT adduct to a stable fluorophore with phosphoric acid. The reaction product is then passed through the fluorometer. The full scale response is adjusted to 50 ng histamine base with a threshold sensitivity of approximately 0.5 ng. The instrument blank (wash) is substracted from the ng histamine of each sample. Then the ng histamine of each sample is divided by the mean of the three totals (cells lysed with perchloric acid) to obtain percent release. Control samples contain antigen but no test compound. Blank (or spontaneous release) samples contain neither antigen nor test compound. The mean of the blanks (three replicates) is subtracted from the percent release for controls and test compounds.

| SMILES | IC50 |
| --- | --- |
| NS(=O)(=O)c1ccc(Nc2nccc(-c3cccnc3)n2)cc1 [4-[[4-(3-pyridinyl)-2-pyrimidinyl]amino]benzenesulfonamide] | 0.2 µM |
| Oc1ccc(Nc2nccc(-c3ccncc3)n2)cc1 [4-[[4-(4-Pyridinyl)-2-primidinyl]amino]phenol] | 3.3 µM |
| COC(=O)c1ccc(Nc2nccc(-c3ccncc3)n2)cc1 [4-[[4-(4-Pyridinyl)-2-pyrimidinyl]amino]benzoic acid, methyl ester] | 27.5 µM |
| Cc1cc(-c2ccnc(Nc3cccc(N(C)C)c3)n2)c(C)o1 [N'-[4-(2,5-Dimethyl-3-furanyl)-2-pyrimidinyl]-N,N-dimethyl-1,3-benzenediamine] | < 24 µM |
| Cc1cc(-c2ccnc(Nc3ccc(N(C)C)cc3)n2)c(C)o1 [N'-[4-(2,5-Dimethyl-3-furanyl)-2-pyrimidinyl]-N,N-dimethyl-1,4-benzenediamine] | 4.9 µM |
| CCN(CC)c1ccc(Nc2nccc(-c3cc4ccccc4o3)n2)cc1 [N'-[4-(2-Benzofuranyl)-2-pyrimidinyl]-N,N-diethyl-1,4-benzenediamine] | 6.2 µM |
| CN(C)c1ccc(Nc2nccc(-c3cc4ccccc4o3)n2)cc1 [N'-[4-(2-Benzofuranyl)-2-pyrimidinyl]-N,N-dimethyl-1,4-benzenediamine] | 5.6 µM |
| Cc1cnc(Nc2ccc(N(C)C)cc2)nc1-c1ccco1 [N'-[4-(2-Furanyl)-5-methyl-2-pyrimidinyl]-N,N-dimethyl-1,4-benzenediamine] | 6.1 µM |
| CCN(CC)c1ccc(Nc2nccc(-c3ccco3)n2)cc1 [N,N-Diethyl-N'-[4-(2-furanyl)-2-pyrimidinyl]-1,4-benzenediamine] | 3.4 µM |
| CCN(CC)c1ccc(Nc2nccc(-c3ccccn3)n2)cc1 [N,N-Diethyl-N'-[4-(2-pyridinyl)-2-pyrimidinyl]-1,4-benzenediamine] | 10.1 µM |
| Cc1cnc(Nc2cccc(N(C)C)c2)nc1-c1ccco1 [N,N-Dimethyl-N'-[4-(2-furanyl)-5-methyl-2-pyrimidinyl]-1,3-benzene-diamine] | 40 µM |
| CN(C)c1cccc(Nc2nccc(-c3cccs3)n2)c1 [N,N-Dimethyl-N'-[4-(2-thienyl)-2-pyrimidinyl]-1,3-benzenediamine] | 2.4 µM |
| CN(C)c1ccc(Nc2nccc(-c3cccs3)n2)cc1 [N,N-Dimethyl-N'-[4-(2-thienyl)-2-pyrimidinyl]-1,4-benzenediamine] | 0.6 µM |
| Cc1ccsc1-c1ccnc(Nc2ccc(N(C)C)cc2)n1 [N,N-Dimethyl-N'-[4-(3-methyl-2-thienyl)-2-pyrimidinyl]-1,4-benzenediamine] | 1.8 µM |
| CN(C)c1cccc(Nc2nccc(-c3cccnc3)n2)c1 [N,N-Dimethyl-N'-[4-(3-pyridinyl)-2-pyrimidinyl]-1,3-benzenediamine] | 1.7 µM |
| CN(C)c1ccc(Nc2nccc(-c3ccsc3)n2)cc1 [N,N-Dimethyl-N'-[4-(3-thienyl)-2-pyrimidinyl]-1,4-benzenediamine] | 2.1 µM |
| CN(C)c1ccccc1Nc1nccc(-c2ccncc2)n1 [N,N-Dimethyl-N'-[4-(4-pyridinyl)-2-pyrimidinyl]-1,2-benzenediamine, fumarate] | 36.2 µM |
| Cc1cc(-c2ccccn2)nc(Nc2ccc(N(C)C)cc2)n1 [N,N-Dimethyl-N'-[4-methyl-6-(2-pyridinyl)-2-pyrimidinyl]-1,4-benzenediamine] | 31.8 µM |
| Cc1cc(-c2ccncc2)nc(Nc2ccc(N(C)C)cc2)n1 [N,N-Dimethyl-N'-[4-methyl-6-(4-pyridinyl)-2-pyrimidinyl]-1,4-benzenediamine] | 37.7 µM |
| c1ccc2c(Nc3nccc(-c4ccncc4)n3)cccc2c1 [N-1-Naphthalenyl-4-(4-pyridinyl)-2-pyrimidinamine] | 31.3 µM |
| Cc1cccc(Nc2nccc(-c3ccncc3)n2)c1C [N-(2,3-Dimethylphenyl)-4-(4-pyridinyl)-2-pyrimidinamine] | 20.2 µM |
| Fc1ccc(Nc2nccc(-c3ccncc3)n2)c(F)c1 [N-(2,4-Difluorophenyl)-4-(4-pyri-dinyl)-2-pyrimidinamine] | < 48 µM |

Next, values leading:

| IC50 | SMILES |
| --- | --- |
| 5.1 µM | Oc1ccc(Nc2nccc(-c3cccnc3)n2)cc1 [4-[[4-(3-Pyridinyl)-2-pyrimidinyl]amino]phenol] |
| 1.9 µM | CN(C)c1ccc(Nc2nccc(-c3ccco3)n2)cc1 [N'-[4-(2-Furanyl)-2-pyrimidinyl]-N,N-dimethyl-1,4-benzenediamine] |
| 1.7 µM | CCN(CC)c1ccc(Nc2nccc(-c3cccnc3)n2)cc1 [N,N-Diethyl-N'-[4-(3-pyridinyl)-2-pyrimidinyl]-1,4-benzenediamine] |
| 1.1 µM | CCN(CC)c1ccc(Nc2nccc(-c3ccncc3)n2)cc1 [N,N-Diethyl-N'-[4-(4-pyridinyl)-2-pyrimidinyl]-1,4-benzenediamine] |
| 28 µM | CCN(CC)c1ccc(Nc2nccc(-c3ccc(C)o3)n2)cc1 [N,N-Diethyl-N'-[4-(5-methyl-2-fur-anyl)-2-pyrimidinyl]-1,4-benzene-diamine] |
| 0.5 µM | CN(C)c1cccc(Nc2nccc(-c3ccccn3)n2)c1 [N,N-Dimethyl-N'-[4-(2-pyridinyl)-2-pyrimidinyl]-1,3-benzenediamine] |
| 4.4 µM | CN(C)c1ccc(Nc2nccc(-c3ccccn3)n2)cc1 [N,N-Dimethyl-N'-[4-(2-pyridinyl)-2-pyrimidinyl]-1,4-benzenediamine, dihydrochloride] |
| 1.6 µM | Cc1ccc(-c2ccnc(Nc3cccc(N(C)C)c3)n2)o1 [N,N-Dimethyl-N'-[4-(5-methyl-2-furanyl)-2-pyrimidinyl]-1,3-benzenediamine] |
| 5.7 µM | Cc1ccc(-c2ccnc(Nc3cccc(N(C)C)c3)n2)s1 [N,N-Dimethyl-N'-[4-(5-methyl-2-thienyl)-2-pyrimidinyl]-1,3-benzenediamine] |
| 3 µM | c1ccc(-c2ccnc(Nc3cccc4ccccc34)n2)nc1 [N-1-Naphthalenyl-4-(2-pyridinyl)-2-pyrimidinamine] |
| < 48 µM | Fc1ccc(Nc2nccc(-c3cccnc3)n2)c(F)c1 [N-(2,4-Difluorophenyl)-4-(3-pyridinyl)-2-pyrimidinamine] |
| 24 µM | Cc1ccc(Nc2nccc(-c3ccncc3)n2)c(C)c1 [N-(2,4-Dimethylphenyl)-4-(4-pyridinyl)-2-pyrimidinamine] |

Same assay, conditions: concentration causing 50% inhibition of histamine release, by linear regression; active if IC50 ≦ 48 µM; dihydrochloride; read-out: IC50

| IC50 | SMILES |
| --- | --- |
| 0.5 µM | CN(C)c1cccc(Nc2nccc(-c3ccccn3)n2)c1 [N,N-Dimethyl-N'-[4-(2-pyridinyl)-2-pyrimidinyl]-1,3-benzenediamine, dihydrochloride] |
| 0.5 µM | CN(C)c1cccc(Nc2nccc(-c3ccncc3)n2)c1 [N,N-Dimethyl-N'-[4-(4-pyridinyl)-2-pyrimidin-yl]-1,3-benzenediamine, dihydrochloride] |

Same assay, conditions: concentration causing 50% inhibition of histamine release, by linear regression; active if IC50 ≦ 48 µM; read-out: IC50

| IC50 | SMILES |
| --- | --- |
| 3.7 µM | CN(C)c1ccc(Nc2nccc(-c3cccnc3)n2)cc1 [N,N-Dimethyl-N'-[4-(3-pyridinyl)-2-pyrimidinyl]-1,4-benzenediamine] |
| 1 µM | CN(C)c1cccc(Nc2nccc(-c3ccncc3)n2)c1 [N,N-Dimethyl-N'-[4-(4-pyridinyl)-2-pyrimidinyl)]-1,3-benzene] [N,N-Dimethyl-N'-[4-(4-pyridinyl)-2-pyrimidinyl)]-1,3-benzenediamine, sulfate] |
| 3.5 µM | CN(C)c1cccc(Nc2nccc(-c3ccncc3)n2)c1 [N,N-Dimethyl-N'-[4-(4-pyridinyl)-2-pyrimidinyl]-1,3-benzened] [N,N-Dimethyl-N'-[4-(4-pyridinyl)-2-pyrimidinyl]-1,3-benzenediamine] |

Same assay, conditions: concentration causing 50% inhibition of histamine release, by linear regression; active if IC50 ≦ 48 µM; trihydrochloride; read-out: IC50

| IC50 | SMILES |
| --- | --- |
| 1 µM | CN(C)c1cccc(Nc2nccc(-c3ccccn3)n2)c1 [N,N-Dimethyl-N'-[4-(2-pyridinyl)-2-pyriziiidin-yl]-1,3-benzenediamine, trihydrochloride] |
| 1.5 µM | CN(C)c1ccc(Nc2nccc(-c3cccnc3)n2)cc1 [N,N-Dimethyl-N'-[4-(3-pyridinyl)-2-pyrimidinyl]-1,4-benzenediamine, trihydrochloride] |
| 0.4 µM | CN(C)c1ccc(Nc2nccc(-c3ccncc3)n2)cc1 [N,N-Dimethyl-N'-[4-(4-pyridinyl)-2-pyrimidinyl]-1,4-benzenediamine, trihydrochloride] |
